Source: paper PMC12486805, “Preclinical evaluation of tridecaptin M: in vitro and in vivo efficacy against colistin-resistant Gram-negative bacterial pathogens and pharmacokinetics” (Antimicrobial Agents and Chemotherapy, 2025)

Key:
[1] = in vitro; details: rat, liver microsomes, pH 7.4
[2] = in vitro; details: human, liver microsomes, pH 7.4
[3] = in vitro; details: mouse, liver microsomes, pH 7.4
[4] = biological target: CYP2C9 (Homo sapiens, UniProt P11712); assay: CYP inhibition assay, recombinant isoform, fluorescence; format: biochemical; details: human, read-out: % inhibition CYP 2C9
Chain of CYP2C9 (P11712 whole entry, canonical isoform): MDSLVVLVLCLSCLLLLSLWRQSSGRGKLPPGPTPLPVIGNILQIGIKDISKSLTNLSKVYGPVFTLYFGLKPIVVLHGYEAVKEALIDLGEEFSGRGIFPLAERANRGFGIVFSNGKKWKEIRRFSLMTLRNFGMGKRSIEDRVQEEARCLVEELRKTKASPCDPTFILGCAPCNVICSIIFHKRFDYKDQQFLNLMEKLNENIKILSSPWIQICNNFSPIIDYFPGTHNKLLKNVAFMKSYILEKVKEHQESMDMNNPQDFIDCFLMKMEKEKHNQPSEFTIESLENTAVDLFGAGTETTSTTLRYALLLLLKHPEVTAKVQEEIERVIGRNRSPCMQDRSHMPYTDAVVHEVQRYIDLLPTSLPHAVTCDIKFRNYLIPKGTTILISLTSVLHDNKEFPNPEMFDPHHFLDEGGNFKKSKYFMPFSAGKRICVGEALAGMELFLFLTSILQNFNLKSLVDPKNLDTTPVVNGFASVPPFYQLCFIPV
Experimental: (§1) The CYP inhibition assay was performed for test/control inhibitor items in duplicates using a 96-well fluorescence plate. An example of the preparation of CYP inhibition is given below in Table 8.
(§2) The plate with CYP master premix with test/control was incubated to allow the test/control samples to interact with CYP enzyme for 10 ± 1 min at 25°C under shaking conditions (400 rpm) using Thermomixer. The assay was initiated by adding 10 µL of a substrate and NADP^+ mixture to all wells, including a vehicle control and an assay blank. The plate was then incubated at 25°C for 25 min with shaking at 400 rpm using a thermomixer. After incubation, the reaction was quenched by adding 50 µL of stop reagent (0.5 M Tris base) to each well. Fluorescence was measured using a microplate reader at excitation/emission wavelengths of 415/460 nm, respectively ([37]).

[5] = biological target: T1, CYP1A2 (Homo sapiens, UniProt P05177); assay: in vitro; format: biochemical; details: human, % inhibition CYP 1A2
T1 sequence (P05177 1-516): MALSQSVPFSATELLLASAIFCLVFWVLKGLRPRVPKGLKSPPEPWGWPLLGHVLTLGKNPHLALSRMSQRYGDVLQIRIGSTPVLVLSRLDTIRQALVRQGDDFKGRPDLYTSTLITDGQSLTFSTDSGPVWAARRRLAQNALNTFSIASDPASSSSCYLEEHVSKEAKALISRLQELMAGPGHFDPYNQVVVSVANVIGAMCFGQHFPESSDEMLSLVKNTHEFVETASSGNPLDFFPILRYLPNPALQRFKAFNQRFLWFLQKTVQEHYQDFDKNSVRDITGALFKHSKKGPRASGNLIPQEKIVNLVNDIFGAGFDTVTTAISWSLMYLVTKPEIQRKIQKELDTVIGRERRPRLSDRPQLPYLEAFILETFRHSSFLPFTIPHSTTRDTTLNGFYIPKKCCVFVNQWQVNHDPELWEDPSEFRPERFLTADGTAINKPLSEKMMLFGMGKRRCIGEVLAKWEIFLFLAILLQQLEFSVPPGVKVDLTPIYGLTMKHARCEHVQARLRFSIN
Experimental: as §1
as §2, with “The plate was then incubated at 25°C for 25 min with shaking at 400 rpm using a thermomixer.” left out, “well.” for “well. Fluorescence was measured using a microplate reader at excitation/emission wavelengths of 415/460 nm, respectively ([37]).”

[6] = biological target: CYP2D6 (Homo sapiens, UniProt P10635); assay: CYP inhibition assay, recombinant isoform, fluorescence; format: biochemical; details: human, recombinant CYP2D6
Chain of CYP2D6 (P10635 whole entry, canonical isoform): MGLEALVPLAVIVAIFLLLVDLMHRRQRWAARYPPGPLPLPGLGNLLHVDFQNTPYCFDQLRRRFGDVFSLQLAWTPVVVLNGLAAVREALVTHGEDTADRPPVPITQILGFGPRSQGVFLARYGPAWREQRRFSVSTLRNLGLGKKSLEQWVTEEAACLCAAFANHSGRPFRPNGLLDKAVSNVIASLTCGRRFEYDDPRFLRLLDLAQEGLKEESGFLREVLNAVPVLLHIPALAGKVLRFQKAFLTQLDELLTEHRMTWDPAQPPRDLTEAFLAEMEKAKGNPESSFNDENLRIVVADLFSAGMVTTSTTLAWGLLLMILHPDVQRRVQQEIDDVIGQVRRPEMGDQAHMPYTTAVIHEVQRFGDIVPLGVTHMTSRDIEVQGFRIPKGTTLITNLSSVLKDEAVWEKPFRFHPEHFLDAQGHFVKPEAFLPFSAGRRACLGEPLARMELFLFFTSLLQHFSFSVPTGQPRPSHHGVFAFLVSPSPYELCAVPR
Experimental: as §1
as §2, with “The plate was then incubated at 25°C for 25 min with shaking at 400 rpm using a thermomixer.” left out, “well.” for “well. Fluorescence was measured using a microplate reader at excitation/emission wavelengths of 415/460 nm, respectively ([37]).”

[7] = tested on: K. pneumoniae AH-16; assay: Mucin peritonitis survival model in BALB/c mice; format: in vivo, Klebsiella pneumoniae; details: 5 mg/kg s.c., three doses at 2, 12, 24 h post-infection
Experimental: The survival study was performed by following a method described earlier, with some modifications; 8–10 week old, female BALB/c mice, 10 mice in each group, were infected with 100μL (OD600nm = 1) of K. pneumoniae AH-16 bacterial suspension prepared in porcine mucin 5% via intraperitoneal injection. Mice were injected subcutaneously with tridecaptin M (10 mg/kg) and colistin (5 mg/kg). The treatment was given in three doses at 2 h, 12 h, and 24 h post-infection to ensure a 15 mg/kg/day maximum dose limit for colistin. The survival or death of mice was monitored and recorded every 12 h for 7 days ([41]).

[8] = tested on: K. pneumoniae ATCC 700603; assay: Peritonitis infection model for intravenous efficacy in Balb/c mice; format: in vivo, Klebsiella pneumoniae; details: single i.v. dose 5 mg/kg, 4 h post-infection
Experimental: Balb/c mice (n = 6), 8-10 weeks old, are rendered neutropenic with cyclophosphamide as in previous experiments. A bacterial load of K. pneumoniae ATCC 700603 standard strain corresponding to ≈10^7 CFU/mL was used, and 100 μL was administered intraperitoneally to cause multi-organ infection conditions. At 4 h, the pre-treatment group was euthanized, and the right kidney of each mouse was harvested, homogenized, serially diluted, and spotted on MHA plates to determine bacterial CFU count per kidney. Simultaneously, at 4 h, the remaining groups were administered 5 mg/kg colistin, 5 mg/kg tridecaptin M, 10 mg/kg tridecaptin M, and vehicle control (PBS); 24 h after treatment, the remaining groups were euthanized, and the CFU count in the right kidney was determined the same as the 4 h pre-treatment group.

[9] = tested on: K. pneumoniae; format: cell-based, Klebsiella pneumoniae
Experimental: (§3) The MIC for all isolates was determined using the broth microdilution method. This involved preparing CA-MHB medium and serially diluting antibiotic solutions by a factor of two. The test organism was adjusted to a concentration of ≈5 × 10^5 CFU/mL. In a sterile 96-well microtiter plate, 100 µL of CA-MHB, along with 100 µL of each antibiotic, was added, and serial dilutions were made. A 100 µL suspension of the organism was added to each well and mixed, resulting in a total reaction volume of 200 µL per well. The plate was then incubated at 37°C for 16–18 h. The MIC was identified as the lowest concentration of antibiotic that prevented any visible growth of the organism ([16]).

[10] = tested on: E. coli; format: cell-based, Escherichia coli
Experimental: as §3

[11] = Intravenous acute toxicity in mice; format: in vivo, Balb/c mice; details: 18 mg/kg i.v.
Experimental: In total, 8–10 week old female Balb/c mice (n = 3) were administered tridecaptin M starting at 15 mg/kg, 25 mg/kg, 50 mg/kg, and 100 mg/kg. […] In this study, we administered 18 mg/kg of colistin to mice intravenously. […] Later, in the second set, intermediate concentrations of 20 mg/kg, 25 mg/kg, 30 mg/kg, 35 mg/kg, and 40 mg/kg doses were also administered to n = 4 mice. In these groups, blood was collected at 24 h post administration or immediately after visible movement stopped (40 mg/kg group), serum was separated and pooled together for each group n = 4, and biochemical serum tests were conducted.

[12] = cited from earlier work

O=C(O)Cc1ccccc1Nc1c(Cl)cccc1Cl [Diclofenac, reference compound]
half-life [1]: > 2 h
microsomal CLint [1]: < 11.6 µL/min/mg
remaining at 0.25 h [1]: 102%
remaining at 0.5 h [1]: 88.6%
remaining at 1 h [1]: 67.2%
remaining at 2 h [1]: 64.5%
half-life [2]: 0.327 h
microsomal CLint [2]: 70.6 µL/min/mg
remaining at 0.25 h [2]: 53.2%
remaining at 0.5 h [2]: 36.5%
remaining at 1 h [2]: 11.6%
remaining at 2 h [2]: 8.3%
half-life [3]: 1.54 h
microsomal CLint [3]: 15 µL/min/mg
remaining at 0.5 h [3]: 77.7%
remaining at 1 h [3]: 58.7%
remaining at 2 h [3]: 40.1%

Nc1ccc(S(=O)(=O)Nc2ccnn2-c2ccccc2)cc1 [Sulfaphenazole, reference compound]
inhibition at 25 min, 0.001 µM ([4]; 0.001 µM): < 0%
inhibition at 25 min, 0.003 µM ([4]; 0.003 µM): 3.42%
inhibition at 25 min, 0.01 µM ([4]; 0.01 µM): 11.3%
inhibition at 25 min, 0.03 µM ([4]; 0.03 µM): 27.2%
inhibition at 25 min, 0.1 µM ([4]; 0.1 µM): 34.7%
inhibition at 25 min, 0.3 µM ([4]; 0.3 µM): 45.2%
inhibition at 25 min, 1 µM ([4]; 1 µM): 53.5%
inhibition at 25 min, 3 µM ([4]; 3 µM): 57.9%

Cc1nc2c([nH]1)c(=O)n(C)c(=O)n2Cc1ccco1 [Furafylline, reference compound]
inhibition at 25 min, 0.01 µM [5]: < 0%
inhibition at 25 min, 0.03 µM [5]: < 0%
inhibition at 25 min, 0.1 µM [5]: < 0%
inhibition at 25 min, 0.3 µM [5]: 9.3%
inhibition at 25 min, 1 µM [5]: 45.3%
inhibition at 25 min, 3 µM [5]: 67.7%
inhibition at 25 min, 10 µM [5]: 90.8%

C=C[C@H]1C[N@@]2CC[C@H]1C[C@@H]2[C@@H](O)c1ccnc2ccc(OC)cc12 [Quinidine, reference compound]
inhibition at 25 min, 0.003 µM [6]: 52.4%
inhibition at 25 min, 0.0003 µM ([6]; 0.0003 µM, read-out: % inhibition CYP 2D6): < 0%
inhibition at 25 min, 0.001 µM ([6]; 0.001 µM, read-out: % inhibition CYP 2D6): 14%
inhibition at 25 min, 0.01 µM ([6]; 0.01 µM, read-out: % inhibition CYP 2D6): 88.6%
inhibition at 25 min, 0.03 µM ([6]; 0.03 µM, read-out: % inhibition CYP 2D6): 92.6%
inhibition at 25 min, 0.1 µM ([6]; 0.1 µM, read-out: % inhibition CYP 2D6): 93.4%
inhibition at 25 min, 0.3 µM ([6]; 0.3 µM, read-out: % inhibition CYP 2D6): 92.5%
inhibition at 25 min, 1 µM ([6]; 1 µM, read-out: % inhibition CYP 2D6): 95.7%

colistin [reference compound]
survival at the end of 7 days [7]: 40%
efficacy (CFU/kidney) compared with tridecaptin M [8]: superior performance
MIC range ([9]; Col-S (colistin sensitive) clinical isolates (72)): 0.25 to 2 µg/mL
MIC ([9]; Std. QC strain ATCC 700603): 0.5 µg/mL
MIC range ([10]; Col-S clinical isolates (52)): 0.25 to 1 µg/mL
MIC ([10]; Std. QC strain ATCC 25922): 0.25 µg/mL
outcome of i.v. administration [11]: immediately lethal
subcutaneous dose known to be lethal to mice [12]: exceeding 36 mg/kg
mortality in acute toxicity study ([12]; colistin group of the same study): all mice in the colistin group died within 24 h
